In paper PMC10584170, “Machine learning-based phenotypic imaging to characterise the targetable biology of Plasmodium falciparum male gametocytes for the development of transmission-blocking antimalarials” (PLOS Pathogens, 2023):
Where two headings read alike, the source gives them in different places.

Columns and labels:
[1] = system: P. falciparum male gametocytes; assay: P. falciparum Dual Gamete Formation Assay (PfDGFA), male readout (exflagellation); assay type: cell-based, Plasmodium falciparum NF54; conditions: for IC50: this study, read-out: Pf DGFA IC50 MALE
Procedure, shortened: (§1)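 Read-outs are automated image counts of exflagellation centres (brightfield, 10 frames over 1 s) and Pfs25-positive female gametes (Cy3 fluorescence).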

[2] = system: P. falciparum female gametocytes; assay: P. falciparum Dual Gamete Formation Assay (PfDGFA), female readout (Pfs25-positive female gametes); assay type: cell-based, Plasmodium falciparum NF54; conditions: for IC50: this study, read-out: Pf DGFA IC50 FEM
Procedure, shortened: as §1

[3] = system: P. falciparum male gametocytes; assay: PhIDDLI timecourse assay, compound added at timepoints after triggering male gametogenesis; assay type: cell-based, Plasmodium falciparum NF54
Method: To gain greater understanding of their activity, selected molecules displaying different inhibition phenotypes in the initial screen were re-tested. Rather than subjecting gametocytes to a 24h preincubation prior to inducing gametogenesis, compounds were added at varying timepoints after triggering male gametogenesis. Samples were then fixed 20 min post-induction, imaged and analysed similarly using the PhIDDLI pipeline.
Alternatively, if compound action over time was to be assessed, 1.5ml tubes with appropriate dilutions of test compounds were prepared for each timepoint. Gametogenesis was then triggered in the mature gametocyte culture with ookinete medium and temperature decrease from 37°C. At appropriate times, 200 μl of triggered culture was sampled and mixed with test compound. All samples were then allowed to continue gametogenesis and fixed as described previously with paraformaldehyde after 20 min (when a DMSO-treated sample could be expected to be exflagellating).
100 μl of the fixed cell suspensions were added to wells of a 24 well plate containing 1ml PBS and a poly-l-lysine-coated glass coverslip. Cells were allowed to settle and adhere to the coverslip overnight at 4°C before coverslips were transferred to a hydrophobic membrane (Parafilm) for immunofluorescence staining in a humidified, dark box. Cells were permeabilised with 0.1% Triton-X100 in PBS for 10 min before washing in PBS three times. Non-specific binding was blocked by incubating coverslips with PBS + 10% fetal bovine serum (FBS) (blocking buffer) for 1 h. Gametocytes and microgametes were visualised by labelling with an anti-alpha tubulin antibody (raised from chicken embryo brain tubulin but cross-reacts with many other species) (clone DM1A (Sigma)) 1:500 dilution in blocking buffer for 1 h, washed as before, and then stained with an anti-mouse Alexa488 secondary antibody (Thermo-Fisher) 1:1,000 dilution in blocking buffer for a further 1 h. After a final series of washes, the coverslips were mounted on glass slides with VectaShield mountant (Vector Laboratories) containing 4′,6-diamidino-2-phenylindole (DAPI) to visualise cellular DNA.
All slides were imaged using a Nikon Ti fluorescence microscope using an x100 oil objective and 1.5x zoom. For each sample, tubulin-postive, DAPI-positive stained gametocytes/gametes were imaged at random. Z-stack images with 0.3μm slices were captured for each field of view and images deconvolved and transformed by maximum intensity projection within the Nikon NIS Elements software. Within raw images, cells were initially identified by an automated analysis pipeline developed in ICY Bioimage Analysis based upon the intensity of the tubulin staining captured which assigns a region of interest (ROI) around each cell. All ROIs were reviewed by a trained operator and adjusted if necessary to reflect the true outline of the cell (for example if two cells touching had been allocated the same ROI). Raw images contained between 1 and 8 extractable cells.
Code for the PhIDDLI pipeline was written in Python 3.8 and executed by command line within a 64-bit Ubuntu virtual machine running within Oracle VM VirtualBox 6.1. […] Principle component analysis of compound phenotypes (Fig 5) was performed using ClustViz (https://biit.cs.ut.ee/clustvis/) using ln(x+1) transformation, and k-means clustering of the resultant PCA data was coded in R and executed in R Studio version 1.1.456 to identify optimum cluster using the elbow method.

HepG2 cells [4] = assay: HepG2 cytotoxicity counter-screen; conditions: for Mean TOX: mean of the HepG2 TOX50 values; for DGFA Tox50 HepG2: HepG2 value reported with the DGFA screen
[5] = system: P. berghei ookinete development; assay: P. berghei Ookinete Development Assay (PbODA); assay type: cell-based, Plasmodium berghei; conditions: Mean TOX HepG2 over Pb ODA value; GREEN = >10-fold; RED = <10-fold
Source text: (§2) Fig 1 The activity of TCAMS compound identified in the Pf DGFA screen. (A) 85 molecules were confirmed active in the Pf DGFA. 58 were previously identified in one or more transmission-blocking screens. […] No molecule was identified with >4.7-fold greater activity against female gametocytes. Abbreviations (IC50 = concentration giving 50% inhibition, PbODA = P. berghei Ookinete Development Assay, PfDGFA = P. falciparum Dual Gamete Formation Assay, PfFGAA = P. falciparum Female Gametocyte Activation Assay, PfGCT = P. falciparum Gametocyte Viability ATP Assay).

[6] = system: P. falciparum female gametocytes; assay: P. falciparum Female Gametocyte Activation Assay (PfFGAA); assay type: cell-based, Plasmodium falciparum; conditions: Mean TOX HepG2 over FGAA IC50; GREEN = >10-fold; RED = <10-fold
Source text: as §2

[7] = system: P. falciparum female gametocytes; design: method as in Miguel-Blanco et al 2017; conditions: ref Miguel-Blanco et al 2017; read-out: Pf female gametogenesis FGAA IC50; cited from earlier work
HepG2 cells [8] = conditions: cited from earlier work

Structure (SMILES)	Cytotox ratio Pf Male [1]	IC50 [1] [nM]	Cytotox ratio Pf Female [2]	cells showing apparent DNA replication ([3]; compound added concurrent with induction, fixed 20 min post-induction, DMSO control 61.4%) [%]	effect on exflagellation ([3]; compound added concurrent with triggering male gametogenesis or 2 min later)	amounts of cells showing evidence of DNA replication ([3]; compound added during the first 2 min of male gametogenesis)	effect on exflagellation ([3]; compound added later than 2 min post-induction (up to 10 min))	Mean TOX (HepG2 cells [4]) [µM]	IC50 [2] [nM]	Cytotox ratio Pb Ookinete [5]	Cytotox ratio Pf FGAA [6]	IC50 [7] [nM]	FGAA TOX50 HepG2 (HepG2 cells [8]) [µM]	ODA TOX50 HepG2 (HepG2 cells [8]) [µM]	DGFA Tox50 HepG2 (HepG2 cells [4]) [µM]	effect on exflagellation ([3]; compound added between 0 and 5 min post induction)
CNC(=O)c1cnc(Nc2ccc(N3CCN(C)CC3)cc2)nc1Nc1ccccc1OC.O=C(O)C(F)(F)F [TC16]	29.7	1200	3.6	21.7	substantially reduced	markedly reduced	not inhibitory	35.63								
Cn1c(Sc2ncnc3sccc23)nc2ccccc21 [TC34]	138.9	720	178.6					100.00	560	156933.9	80.0	1250	100	100	100	
Cc1cc(Nc2ncc(C#N)c(Nc3ccccc3C(N)=O)n2)ccc1N1CCN(C)CC1.Cl [TC37]	45.1	40	0.244					1.80	7400	66058.5	1.1	1670	0.4	3.981		
Cc1ccc(-n2c(Sc3ncnc4sccc34)nnc2N2CCCC2)cc1 [TC46]	207.3	380	315.2					78.79	250	177427.8	160.8	490	89.13	74.1		
CC[C@]1(O)C[C@@H]2CN(CCc3c([nH]c4ccccc34)[C@@](C(=O)OC)(c3cc4c(cc3OC)N(C)[C@H]3[C@@](O)(C(=O)OC)[C@H](OC(C)=O)[C@]5(CC)C=CCN6CC[C@]43[C@@H]65)C2)C1 [vinblastine, reference compound]																strongly inhibited exflagellation
Cc1ccc(S(=O)(=O)N(CCCNCc2cccc(O)c2)c2ccccc2)cc1 [TC44]	119.3	310	4.8					36.97	7660	26220.7	32.4	1140	44.67	34.6737		
Cc1cc(C(=O)OCC(=O)Nc2c(C)n(C)n(-c3ccccc3)c2=O)c(C)n1-c1ccc(F)cc1 [TC63]	31.4	1900	41.8					59.75	1430	166949.3				19.5	100	
Cc1cccc(Nc2nc(N[C@@H]3CCCNC3)nc3cc[nH]c(=O)c23)c1.O=C(O)C(F)(F)F [TC29]	19.5	210	0.532					4.09	7690	3922.6	2.2	1850	3.25	4.57		
COc1ccc(Nc2ncc(C#N)c(Nc3ccccc3C(N)=O)n2)cc1N1CCN(C)CC1.Cl [TC22]	89.5	100	0.9					8.95		308001.0				8.318		
COc1ccc(Nc2ncc(Cl)c(Nc3cccnc3C(N)=O)n2)cc1N1CCN(C)CC1.Cl [TC75]	17.8	400	0.7					7.10		11414.1				11.22		
CN1CCN(c2ccc(Nc3ncc(C#N)c(Nc4ccccc4C(N)=O)n3)cc2)CC1.Cl [TC49]	102.3	30	0.335					3.07	9170	95106.6				2.427		
COc1ccc(-c2cnc(N)c(-c3ccc(C(N)=O)cc3)c2)cc1OC [TC26]	205.6	280	5.8					57.57		82067.7				100		
Cl.NC(=O)c1ccccc1Nc1nc(Nc2cccc(N3CCN(CCO)CC3)c2)ncc1Cl [TC33]	58.3	470	2.7					27.38		311828.0				41.687		
O=C(O)C(F)(F)F.O=c1[nH]ccc2nc(N[C@@H]3CCCNC3)nc(Nc3ccc(S(=O)(=O)N4CCOCC4)cc3)c12 [TC42]	563.3	60	4.1					33.80	8170	23182.4				45.71		
CCS(=O)(=O)Nc1ccc2c(c1)/C(=C(/Nc1ccc(CN3CCCCC3)cc1)c1ccccc1)C(=O)N2 [TC81]	877.0	10	0.9					8.77		6770.0				16.98		
